Measured values: US12421254B2, “KRAS modulators and uses thereof” (Quanta Therapeutics, Inc., priority 2023, dated 2025)
Read-outs that look alike come from different tables or passages of the source.

Tests used:
[1] = molecular target: GST-tagged KRAS-G12D (2-169) (Homo sapiens, UniProt P01116, G12D); experiment: Nucleotide exchange assay (NEA), SOS-mediated, HTRF, KRAS G12D; type: biochemical; conditions: IC50 extracted at 30 min, 20 nM SOScat
Procedure, shortened: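 SOS1cat-driven loading of fluorescent GTP-DY-647P1 (150 nM) onto GST-KRAS-G12D (2-169, 0.25 nM) read by time-resolved FRET; SOScat 20 nM, compound preincubated with KRAS 1 h at RT. Signal blanked to no-SOS reactions, normalized to DMSO; IC50 fitted from the 30-min read.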

[2] = molecular target: GST-tagged KRAS-G12V (2-169) (Homo sapiens, UniProt P01116, G12V); experiment: Nucleotide exchange assay (NEA), SOS-mediated, HTRF, KRAS G12V; type: biochemical; conditions: Table 4; IC50 extracted at 90 min; 80 nM SOS
GST-tagged KRAS-G12V (2-169), sequence (P01116 2-169 isoform P01116-2 G12V): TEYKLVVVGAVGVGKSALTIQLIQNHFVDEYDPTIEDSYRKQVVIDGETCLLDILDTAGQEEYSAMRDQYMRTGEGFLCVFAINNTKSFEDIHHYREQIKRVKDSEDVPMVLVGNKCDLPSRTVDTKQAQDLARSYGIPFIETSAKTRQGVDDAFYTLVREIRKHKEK
Procedure, shortened: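 Exchange onto fluorescent GTP-DY-647P1 (150 nM final) catalysed by 80 nM SOS1cat was followed by Tb-anti-GST HTRF at RT for up to 90 min, after 1 h compound pre-incubation with 0.25 nM GST-tagged KRAS-G12V (2-169), pH 7.3. DMSO = 0%, no-SOS blank = 100%; 4-parameter IC50 taken at 90 min.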

KRAS G12V/RAF1 = molecular target: T1, KRAS G12V/RAF1 (Homo sapiens, UniProt P01116, G12V); experiment: Protein-protein interaction (PPI) HTRF assay KRAS G12V/RAF1; type: binding; conditions: Table 3
T1 construct: KRAS (1-169) proteins were expressed in BL21 (DE3)-CodonPlus E. coli; His6-MBP (N, cleaved yes)
T1 sequence (P01116 with tags, fused parts or gaps isoform P01116-2 G12V): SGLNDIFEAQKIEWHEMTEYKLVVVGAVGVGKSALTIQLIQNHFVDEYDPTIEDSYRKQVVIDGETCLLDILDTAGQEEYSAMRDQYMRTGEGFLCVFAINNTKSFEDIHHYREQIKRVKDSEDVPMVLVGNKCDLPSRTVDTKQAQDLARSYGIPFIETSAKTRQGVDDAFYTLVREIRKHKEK
Procedure: (§1) When RAS proteins are in the active GTP-bound conformation, they bind the effector protein RAF1 at the N-terminus Ras-binding domain (RBD, residues 52-131) (Tran, et al., 2021). Homogenous time resolved fluorescence (HTRF) was used to monitor the interaction between wt or mutant KRAS and RAF1 or wt NRAS and RAF1. Compounds were assayed in the presence of KRAS G12D/V and RAF1 versus wt KRAS to assess activity against mutant and w.t. KRAS. Similarly, compounds were then assayed in the presence of w.t. NRAS and RAF1 to assess RAS isoform selectivity. In all assay formats, His-tagged RAF1 protein was incubated with the HTRF donor, anti-6His Tb Cryptate gold (Cisbio 61DB10RDF), and biotinylated RAS proteins were incubated with the HTRF acceptor, streptavidin-d2 (CisBio 610SADLA). The intensity of the fluorescence signal emitted is proportional to binding between the two proteins. The donor solution was prepared by mixing 16 nM His-tagged RAF1 in protein dilution buffer with 1:100 anti-6His Tb cryptate in PPI-Terbium detection buffer. 16 nM biotinylated RAS protein was diluted into protein dilution buffer (50 mM Tris-HCl pH 7.5, 150 mM NaCl, 0.1 mM MgCl2, 1 mM TCEP, 0.005% Tween20) and mixed with 1:2000 Streptavidin-d2 diluted in PPI-Terbium detection buffer (CisBio 61DB10RDF). 50× compound in DMSO was mixed with 16 nM KRAS-acceptor solution and incubated for 30 minutes at room temperature. After compound pre-incubation with KRAS, the RAF1 donor solution was added to the KRAS-acceptor solution and incubated for 1 hour at room temperature. The fluorescence signal emitted was monitored at 665 nm and 615 nm using an Envision multimode plate reader. The HTRF ratio (665/615) was calculated and normalized to 0% inhibition in the absence of compound and 100% inhibition in the presence of untagged RAF1 protein. PPI KRAS G12D/RAF1, KRAS G12V/RAF1, w.t. KRAS/RAF1 and NRAS/RAF1 IC50 (uM) values of selected compounds are depicted in Table 3 and Table 4 with compounds having a value <0.1 uM as ++++; ≥0.1 uM to 1 uM as +++; ≥1 uM to 10 uM as ++; ≥10 uM to 100 uM as +; and ≥100 uM as NA.

KRAS G12D/RAF1 = molecular target: T2, KRAS G12D/RAF1 (Homo sapiens, UniProt P01116, G12D); experiment: Protein-protein interaction (PPI) HTRF assay KRAS G12D/RAF1; type: binding; conditions: Table 2
T2 construct: KRAS (1-169) proteins were expressed in BL21 (DE3)-CodonPlus E. coli; His6-MBP (N, cleaved yes)
T2 sequence (P01116 with tags, fused parts or gaps isoform P01116-2 G12D): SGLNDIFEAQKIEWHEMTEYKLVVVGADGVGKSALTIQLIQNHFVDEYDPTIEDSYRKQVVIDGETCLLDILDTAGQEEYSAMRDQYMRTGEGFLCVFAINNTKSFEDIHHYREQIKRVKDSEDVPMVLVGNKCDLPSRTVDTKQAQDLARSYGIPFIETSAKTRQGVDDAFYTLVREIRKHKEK
Procedure: as §1

[3] = test system: phospho-ERK in GP2D (KRAS-G12D) cells; experiment: pERK In Cell Western (ICW) assay (Method B), GP2D; type: cell-based; conditions: GP2d, 3 h, Table 4
Procedure, shortened: (§2)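 In-cell western read-out: phospho-ERK (800 nm) normalized to DRAQ5 (700 nm) per well, expressed as percent of blank control, IC50 from 4-parameter variable-slope fit. Compounds were applied as ½-log 9-point series for 3 h at 37 °C to cells plated the previous day.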

phospho-ERK in AGS cells = experiment: pERK In Cell Western (ICW) assay (Method B), AGS; type: cell-based; conditions: Homo sapiens, Table 2, 3 hours
Procedure: pERK ICW is a high throughput screening assay to evaluate the cellular potency of mutant KRAS small molecule inhibitors. KRAS mutant cell lines AGS, GP2D (KRAS-G12D) as well as SW620 (KRAS-G12V) were purchased from ATCC and maintained respectively in RPMI/DMEM/RPMI medium supplemented with 10% fetal bovine serum.
Cells grown in exponential phase were trypsinized, resuspended in fresh media, and viable cells were counted using a cell counter with Trypan Blue (BioRad TC20). Cells were seeded into 384-well plate (Greiner 781091) at density of 5,000 cells/well for AGS and 10,000 cells/well for GP2D/SW620 and allowed to grow overnight in a 37° C. CO2 incubator. The next day, compounds were dispensed into wells with a ½ log, 9-point serial dilution using a Tecan D300e dispenser and incubated for 3 hours in a 37° C. CO2 incubator. Cells were then fixed with paraformaldehyde (Electron Microscopy Sciences, 15710, 4% final concentration) for 30 min, permeabilized with wash buffer (1×PBS+0.1% Triton X-100) for 30 min and blocked with Odyssey blocking buffer (Li—COR 927-70001) for 1 hour, all at room temperature (RT). Phospho-ERK antibody (CST 4370L) was diluted 1:500 in Odyssey T20 (PBS) antibody diluent (Li—COR 927-75001) and incubated with cells overnight at 4° C. The next day, plates were washed 5× with wash buffer, incubated with IRDye 800 CW, Goat anti-Rabbit secondary antibody (Li—COR 926-32211, 1:800) and DRAQ5 (CST 4084L, 1:5,000) diluted in Odyssey T20 (PBS) antibody diluent for 1 hour, washed 5×, and imaged on an Odyssey CLx imaging system.
For data analysis, signal intensities from 800 (phosphor-ERK) and 700 (DRAQ5) channels were extracted, and phospho-ERK signals were normalized to DRAQ5 signals for each well and percent of blank control values were computed. Data were then imported into Graphpad Prism to compute half-maximal inhibitory concentrations (IC50) using a 4-parameter variable slope model. Z-factor for each plate was computed from signals derived from wells treated with either DMSO or 5 μM of control compound. AGS pERK ICW (Method B) IC50 (uM) values of selected compounds are depicted in Table 2 with compounds having a value ≥0.001 uM to 0.01 uM as ++++; ≥0.01 uM to 0.1 uM as +++; ≥0.1 uM to 1 uM as ++; ≥1 uM to 10 uM as + and ≥10 uM as NA.

[4] = test system: phospho-ERK in SW620 (KRAS-G12V) cells; experiment: pERK In Cell Western (ICW) assay (Method B), SW620; type: cell-based; conditions: Homo sapiens, SW-620, 3 h, Table 4
Procedure, shortened: as §2

[5] = Table 2, read-out: NEA-G12D (uM) IC50
[6] = Table 4, read-out: NEA G12D IC50

GST-tagged KRAS-G12D (2-169), sequence (P01116 2-169 isoform P01116-2 G12D): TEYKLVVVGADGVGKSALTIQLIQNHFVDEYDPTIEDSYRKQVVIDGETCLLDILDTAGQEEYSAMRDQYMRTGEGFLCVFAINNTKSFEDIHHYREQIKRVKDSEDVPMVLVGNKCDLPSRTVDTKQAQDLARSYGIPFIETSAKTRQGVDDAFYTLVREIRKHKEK

| SMILES | IC50 [1, 5] | IC50 [1, 6] | IC50 [2] | IC50 (KRAS G12V/RAF1) | IC50 (KRAS G12D/RAF1) | IC50 [3] | IC50 (phospho-ERK in AGS cells) | IC50 [4] |
| --- | --- | --- | --- | --- | --- | --- | --- | --- |
| CC(C#N)COc1nc(OC[C@@]23CCCN2C[C@H](F)C3)nc(N2CC3(CCc4sc(N)c(C#N)c43)C2)n1 (stereo partly drawn) [Compound 17, 2-amino-1′-[4-(2-cyanopropoxy)-6-[[(2R,8S)-2-fluoro-1,2,3,5,6,7-hexahydropyrrolizin-8-yl]methoxy]-1,3,5-triazin-2-yl]spiro[5,6-dihydrocyclopenta[b]thiophene-4,3′-azetidine]-3-carbonitrile] | 0.1 to 1 µM | 0.1 to 1 µM | 0.01 to 0.1 µM | 10 to 100 µM | 10 to 100 µM |  |  |  |
| N#Cc1c(N)sc2c1C1(CC2)CN(c2nc(OC[C@@]34CCCN3C[C@H](F)C4)nc(N3CCC[C@@H](CO)C3)n2)C1 [Compound 20, 2-amino-1′-[4-[[(2R,8S)-2-fluoro-1,2,3,5,6,7-hexahydropyrrolizin-8-yl]methoxy]-6-[(3R)-3-(hydroxymethyl)-1-piperidyl]-1,3,5-triazin-2-yl]spiro[5,6-dihydrocyclopenta[b]thiophene-4,3′-azetidine]-3-carbonitrile] | 0.01 to 0.1 µM | 0.01 to 0.1 µM | 0.01 to 0.1 µM | 10 to 100 µM | 10 to 100 µM | 1 to 20 µM | 1 to 10 µM |  |
| N#Cc1c(N)sc2c1C1(CC2)CN(c2nc(OC[C@@]34CCCN3C[C@H](F)C4)nc(N3CCC[C@@H](O)[C@@H](O)C3)n2)C1 [Compound 81, 2-amino-1′-[4-[(3S,4R)-3,4-dihydroxyazepan-1-yl]-6-[[(2R,8S)-2-fluoro-1,2,3,5,6,7-hexahydropyrrolizin-8-yl]methoxy]-1,3,5-triazin-2-yl]spiro[5,6-dihydrocyclopenta[b]thiophene-4,3′-azetidine]-3-carbonitrile; 2,2,2-trifluoroacetic acid] |  | < 0.01 µM | < 0.01 µM |  |  | 0.1 to 1 µM |  | 1 to 20 µM |
| N#Cc1c(N)sc2c1C1(CC2)CCN(c2nc(OCC3(CN4CCOCC4)CC3)nc(N3C[C@H]4CC[C@@H](C3)N4)n2)C1 (stereo partly drawn) [Compound 9, 2-amino-1′-[4-[(1R,5S)-3,8-diazabicyclo[3.2.1]octan-3-yl]-6-[[1-(morpholinomethyl)cyclopropyl]methoxy]-1,3,5-triazin-2-yl]spiro[5,6-dihydrocyclopenta[b]thiophene-4,3′-pyrrolidine]-3-carbonitrile] | < 0.01 µM | < 0.01 µM | 1 to 20 µM | 10 to 100 µM | 1 to 10 µM | 0.01 to 0.1 µM | 0.1 to 1 µM |  |
| CCN(c1nc(OC[C@@H]2CC(F)(F)CN2C)nc(N2CC3(C2)SCc2sc(N)c(C#N)c23)n1)[C@H](C)c1cccnc1N [Compound 176, 2-amino-1′-[4-[[(1R)-1-(2-amino-3-pyridyl)ethyl]-ethyl-amino]-6-[[(2S)-4,4-difluoro-1-methyl-pyrrolidin-2-yl]methoxy]-1,3,5-triazin-2-yl]spiro[6H-thieno[3,4-b]thiophene-4,3′-azetidine]-3-carbonitrile] |  | 0.1 to 1 µM | < 0.01 µM |  |  | 1 to 20 µM |  | 0.01 to 0.1 µM |
| CC1(C#N)CCCN(c2nc(OCC3(CN4CCOCC4)CC3)nc(N3CC4(CCc5sc(N)c(C#N)c54)C3)n2)C1 (centres unmarked) [Compound 57, 2-amino-1′-[4-(3-cyano-3-methyl-1-piperidyl)-6-[[1-(morpholinomethyl)cyclopropyl]methoxy]-1,3,5-triazin-2-yl]spiro[5,6-dihydrocyclopenta[b]thiophene-4,3′-azetidine]-3-carbonitrile] |  | 0.1 to 1 µM | 0.01 to 0.1 µM |  |  | 1 to 20 µM |  | 1 to 20 µM |
| CC(CO)N(c1nc(OC[C@@]23CCCN2C[C@H](F)C3)nc(N2CC3(C2)SCc2sc(N)c(C#N)c23)n1)C1(C#N)CC1 (stereo partly drawn) [Compound 262, 2-amino-1′-[4-[(1-cyanocyclopropyl)-(2-hydroxy-1-methyl-ethyl)amino]-6-[[(2R,8S)-2-fluoro-1,2,3,5,6,7-hexahydropyrrolizin-8-yl]methoxy]-1,3,5-triazin-2-yl]spiro[6H-thieno[3,4-b]thiophene-4,3′-azetidine]-3-carbonitrile] |  | < 0.01 µM | < 0.01 µM |  |  | 0.01 to 0.1 µM |  | 0.01 to 0.1 µM |
| CC1(NC#N)CCCN(c2nc(OC[C@@]34CCCN3C[C@H](F)C4)nc(N3CC4(CCc5sc(N)c(C#N)c54)C3)n2)C1 (stereo partly drawn) [Compound 52, [1-[4-(2-amino-3-cyano-spiro[5,6-dihydrocyclopenta[b]thiophene-4,3′-azetidine]-1′-yl)-6-[[(2R,8S)-2-fluoro-1,2,3,5,6,7-hexahydropyrrolizin-8-yl]methoxy]-1,3,5-triazin-2-yl]-3-methyl-3-piperidyl]cyanamide] |  | 0.01 to 0.1 µM | 0.01 to 0.1 µM |  |  | 0.1 to 1 µM |  | 1 to 20 µM |
| N#Cc1c(N)sc2c1C1(CC2)CCN(c2nc(OC[C@@]34CCCN3C[C@H](F)C4)nc(N3CCCC(C#N)CC3)n2)C1 (stereo partly drawn) [Compound 12, 2-amino-1′-[4-(4-cyanoazepan-1-yl)-6-[[(2R,8S)-2-fluoro-1,2,3,5,6,7-hexahydropyrrolizin-8-yl]methoxy]-1,3,5-triazin-2-yl]spiro[5,6-dihydrocyclopenta[b]thiophene-4,3′-pyrrolidine]-3-carbonitrile] | 0.1 to 1 µM | 0.1 to 1 µM | 0.1 to 1 µM | 10 to 100 µM | 10 to 100 µM |  |  |  |
